Where “and” joins values, the source holds several entries; their conditions need not be identical. Equal values may be shown once.
Tests used:
Type in all cases: functional, Homo sapiens
Parameters in all cases: dose or concentration left out as unconfirmed
Colon cancer organoid [1] = assay: (§1) Image-based profiling of donated chemical probes and chemogenomic kinase set in O06 CRC organoid. Image analysis is performed on the sum area metric, and the data were normalized to the DMSO control. After imaging the organoid viability is measured using the OneGloEX Luciferase Assay System. The normalized viability data and sum area are reported.
Colon cancer organoid [2] = assay: as §1, with “O09” for “O06”
Colon cancer organoid [3] = assay: as §1, with “O21” for “O06”

SMILES	Cell Viability (Colon cancer organoid [1]; Replication number 1)	Cell Viability (Colon cancer organoid [1]; Replication number 2)	Cell Viability (Colon cancer organoid [2]; Replication number 1)	Cell Viability (Colon cancer organoid [2]; Replication number 2)	Cell Viability (Colon cancer organoid [3]; Replication number 1)	Cell Viability (Colon cancer organoid [3]; Replication number 2)
CC(C)(O)c1cncc(-c2nc3ccc(F)cc3n2C2CC2)c1 [MSD-CYP11B2]	79.0545% and 113.441%	106.294% and 130.706%	85.3446% and 107.103%	121.971% and 103.489%	108.022% and 122.772%	100.134% and 120.326%
COCc1nc2cnc3cc(-c4c(C)noc4C)c(OC[C@H]4CCNC4)cc3c2n1[C@H](C)c1ccccc1 [GSK778]	42.5585% and 78.7045%	45.6544% and 89.6204%	36.9836% and 58.5219%	32.5027% and 49.1673%	115.801% and 111.859%	99.2147% and 116.757%
Cc1c(Nc2ccc(S(=O)(=O)N3CCN(C)CC3)cc2F)nc2ccc(-c3cnn(C4CC4)c3)cn2c1=O	155.776% and 116.215%	128.897% and 94.1583%	191.117% and 102.241%	170.931% and 98.6379%	111.388% and 118.746%	91.8423% and 96.6587%
Cc1ccc2nc(NCCN)c3ncc(C)n3c2c1.O=C(O)C(F)(F)F.O=C(O)C(F)(F)F	119.625% and 106.83%	110.324% and 90.8997%	111% and 93.003%	101.477% and 77.7459%	135.691% and 125.993%	139.56% and 141.634%
CC(=O)c1cc(-c2cc(C(=O)NC3CC3)ccc2C)c2ncccn12	115.093% and 116.94%	131.559% and 119.251%	163.828% and 97.8362%	113.773% and 107.19%	100.074% and 118.158%	94.4985% and 97.1957%
COc1cc(C)c(Sc2cnc(NC(=O)c3ccc(CNC(C)C(C)(C)C)cc3)s2)cc1C(=O)N1CCN(C(C)=O)CC1 (stereo not given)	76.6912% and 109.056%	80.9572% and 86.581%	101.639% and 97.9897%	78.5606% and 100.962%	74.3447% and 68.0139%	84.4374% and 89.8165%
O=C(/C=C/N1C[C@H]2C[C@@H]1CN2c1ccccn1)c1ccccc1O	142.277% and 136.268%	180.564% and 107.78%	108.639% and 102.241%	93.5613% and 97.7827%	136.807% and 131.679%	93.5448% and 99.3437%
Nc1ncnc2c1ccn2[C@@H]1O[C@H]([C@H](O)c2ccccc2)[C@@H](O)[C@H]1O	27.0632% and 78.2819%	–	67.0274% and 58.6553%	77.7398% and 60.4371%	74.1764% and 78.772%	70.798% and 78.401%
CNC(=O)c1ccccc1Nc1cc(Nc2ccc(N3CCOCC3)cc2OC)ncc1C(F)(F)F [VS-4718]	26.6369% and 55.3846%	24.9671% and 46.6122%	16.1966% and 32.4497%	15.3454% and 34.2982%	46.4172% and 62.2044%	35.2448% and 60.1632%
CCNC(=O)c1cc2c(N3CCOC[C@@H]3C)ccnc2n1C	97.9107% and 98.1265%	90.7853% and 98.7859%	131.24% and 98.4338%	151.747% and 108.945%	124.621% and 105.951%	105.072% and 92.3469%
O=C(NCCCN1CCOC1=O)c1cnc(NCc2cc(Br)ccc2Br)nc1NC1CCCC1	128.504% and 125.145%	109.486% and 115.731%	172.879% and 128.436%	143.806% and 111.114%	88.4413% and 90.6749%	101.16% and 88.408%
COc1cc(-c2cn([C@H]3CCc4c(F)cccc4N(CC(F)(F)F)C3=O)nn2)ccc1-n1cnc(C)c1	98.6748% and 98.829%	105.811% and 104.708%	81.2479% and 97.2392%	40.0152% and 77.6926%	110.846% and 137.969%	98.2534% and 104.592%
CC1=C(C#N)C(c2ccc3[nH]nc(C)c3c2)C(C#N)=C(C)N1 [BAY-474]	114.031% and 109.602%	118.528% and 111.578%	97.0801% and 99.3894%	77.9563% and 84.1183%	98.4176% and 90.2329%	78.5633% and 94.3878%
O=C(N1CCS(=O)(=O)CC1)N1C[C@H](c2ccc(OC(F)(F)F)cc2)C[C@H](c2nc(C3CC3)no2)C1 [BAY-386]	89.0523% and 95.7845%	109.266% and 112.289%	89.9865% and 101.779%	61.3549% and 77.1084%	113.622% and 103.04%	77.465% and 87.7551%
CN1CCN(c2ccc(-c3cccc(CN4CCOCC4)c3)cc2NC(=O)c2c[nH]c(=O)cc2C(F)(F)F)CC1	183.315% and 145.933%	137.387% and 99.6548%	103.563% and 97.1406%	155.063% and 99.7783%	76.0385% and 85.8263%	102.756% and 104.714%
CCOc1cc(N2CCC(O)CC2)ccc1Nc1ncc2c(n1)N(C1CCCC1)CCC(=O)N2C	54.2917% and 71.4425%	45.2272% and 91.5167%	71.8666% and 49.1195%	54.8924% and 49.401%	101.764% and 118.746%	133.409% and 125.513%
O=C(NC[C@@H]1[C@H]2CN(C(=O)OCc3cc(C(F)(F)F)cc(C(F)(F)F)c3)C[C@@H]12)c1ccc2[nH]nnc2c1 [BI 2545]	131.534% and 122.248%	107.128% and 130.293%	189.417% and 138.094%	118.998% and 92.5885%	93.6308% and 96.6365%	84.4904% and 89.2857%
O=C(NOC[C@H](O)CO)c1ccc(F)c(F)c1Nc1ccc(I)cc1F [MIRDAMETINIB]	3.1671% and 12.2187%	2.358% and 7.568%	6.019% and 17.678%	3.596% and 12.9307%	22.725% and 32.892%	19.7018% and 35.9842%
CNc1nc(-c2ccc3c(N)n[nH]c3c2)cc(N2C[C@@H](C(=O)NC3CCCCC3)CC[C@H]2C)n1	59.7664% and 83.0769%	75.2742% and 90.8217%	19.6659% and 24.7593%	39.1039% and 41.4354%	64.6112% and 105.857%	53.2272% and 96.363%
C[C@H](c1ccc(F)cc1)N(Cc1cccc(C(=O)O)c1)C(=O)c1cnc2ccccc2c1 [PF-05105679]	106.225% and 110.304%	129.169% and 147.587%	96.3652% and 120.892%	63.8781% and 75.356%	102.98% and 107.115%	83.9126% and 93.8775%
O=C(Nc1cnc(Oc2ccc(F)cc2)nc1)N1CCc2ncccc2[C@@H]1c1ccc(F)cc1 [BAY-899]	95.5159% and 118.785%	100.58% and 108.361%	90.6617% and 101.288%	105.766% and 101.705%	121.151% and 99.8545%	98.3369% and 80.5574%
Cc1cc(=O)n(C)c2cc(N3C(=O)CC[C@H](NS(=O)(=O)CC(C)C)[C@H]3c3ccc(Cl)cc3)ccc12	144.152% and 97.8523%	176.827% and 107.063%	117.261% and 101.082%	140.716% and 110.041%	117.189% and 110.516%	129.923% and 112.232%
CCOC(=O)c1c(/C(C#N)=C\N)c2ccc(Cl)c(Cl)c2n1C	68.8446% and 103.482%	89.5184% and 120.135%	79.2888% and 103.726%	80.6301% and 101.308%	124.932% and 127.137%	116.619% and 130.014%
CC(=O)c1c(NS(C)(=O)=O)c2cc(-c3ccc(Cl)cc3)c(-c3ccc(Cl)cc3Cl)nc2n(C)c1=O [MRL-CB1-NC]	116.774% and 92.5059%	73.5946% and 87.6518%	160.352% and 102.495%	132.682% and 100.183%	126.549% and 100.129%	108.062% and 94.898%
CN(C(=O)c1cnn2cccnc12)c1cc2c(cc1N1CCOCC1)C(=O)N(C[C@@H](F)C(C)(C)O)C2	66.1312% and 81.8624%	88.8257% and 96.1076%	67.6561% and 89.4711%	97.2316% and 93.7748%	91.4071% and 91.6697%	87.4763% and 99.932%
O=C(NOCC1CC1)c1ccc(F)c(F)c1Nc1ccc(I)cc1Cl [CI-1040]	3.322% and 9.147%	3.495% and 11.5373%	15.162% and 31.6659%	27.5568% and 31.5843%	35.0082% and 32.446%	40.3855% and 37.5387%
